Experimental findings from patent US20230203098A1, “HUMAN TRANSFERRIN RECEPTOR BINDING PEPTIDE” (priority 2020, published 2023) are described below.

The term Kd denotes the constant that tells how readily two partners part at equilibrium.

Read-outs that look alike come from different tables or passages of the source. Where a SMILES comes first, the peptide text is derived from it. Bridges are numbered along the chain shown (N, C = ends). Primed or numbered codes have the meaning given here. [ ]: non-standard residue; d: D form. The star is where a group is joined. X2 = O=C(O)c1cc(C(=O)*)ccc1-c1c2ccc(=O)cc-2oc2cc(O)ccc12; PEG12 = NCCOCCOCCOCCOCCOCCOCCOCCOCCOCCOCCOCCOCCC(=O)O; NH(CH2CH2O)8Me = COCCOCCOCCOCCOCCOCCOCCOCCN*; NMePhe(3-Cl) = CN[C@@H](Cc1cccc(Cl)c1)C(=O)O; NMeW = CN[C@@H](Cc1c[nH]c2ccccc12)C(=O)O; Lys(N3) = [N-]=[N+]=NCCCC[C@H](N)C(=O)O; NMeY = CN[C@@H](Cc1ccc(O)cc1)C(=O)O; NMeH = CN[C@@H](Cc1c[nH]cn1)C(=O)O; PEG4 = NCCOCCOCCOCCOCCC(=O)O; PEG11′ = not defined here; Dap = NC[C@H](N)C(=O)O

The experiment addresses transferrin receptor (hTfR) (Homo sapiens, UniProt P02786). The experiment is described as follows: Intermolecular interaction evaluation test between transferrin receptor (hTfR) and peptide by surface plasmon resonance (SPR). It counts as binding. An outline of the steps:
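hTfR captured on Ni-NTA chip then amine-coupled; peptides run single-cycle kinetics at 5–100 nM in 10 mM HEPES pH 8.0, 150 mM NaCl, 0.05% Tween 20, 0.1% BSA, 1.0% DMSO. KD from least-squares curve fitting of sensorgrams.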

Where [1] appears, read: surface plasmon resonance, peptide vs hTfR, read-out: KD value, hTfR binding by SPR (class symbol).
The mark [2] stands for this setting: surface plasmon resonance, hTfR, read-out: KD value for hTfR by SPR (class symbol).
Where [3] appears, read: binding to hTfR by SPR, Table 2 peptides, read-out: KD value (SPR) class.

transferrin receptor (hTfR), sequence (P02786 whole entry): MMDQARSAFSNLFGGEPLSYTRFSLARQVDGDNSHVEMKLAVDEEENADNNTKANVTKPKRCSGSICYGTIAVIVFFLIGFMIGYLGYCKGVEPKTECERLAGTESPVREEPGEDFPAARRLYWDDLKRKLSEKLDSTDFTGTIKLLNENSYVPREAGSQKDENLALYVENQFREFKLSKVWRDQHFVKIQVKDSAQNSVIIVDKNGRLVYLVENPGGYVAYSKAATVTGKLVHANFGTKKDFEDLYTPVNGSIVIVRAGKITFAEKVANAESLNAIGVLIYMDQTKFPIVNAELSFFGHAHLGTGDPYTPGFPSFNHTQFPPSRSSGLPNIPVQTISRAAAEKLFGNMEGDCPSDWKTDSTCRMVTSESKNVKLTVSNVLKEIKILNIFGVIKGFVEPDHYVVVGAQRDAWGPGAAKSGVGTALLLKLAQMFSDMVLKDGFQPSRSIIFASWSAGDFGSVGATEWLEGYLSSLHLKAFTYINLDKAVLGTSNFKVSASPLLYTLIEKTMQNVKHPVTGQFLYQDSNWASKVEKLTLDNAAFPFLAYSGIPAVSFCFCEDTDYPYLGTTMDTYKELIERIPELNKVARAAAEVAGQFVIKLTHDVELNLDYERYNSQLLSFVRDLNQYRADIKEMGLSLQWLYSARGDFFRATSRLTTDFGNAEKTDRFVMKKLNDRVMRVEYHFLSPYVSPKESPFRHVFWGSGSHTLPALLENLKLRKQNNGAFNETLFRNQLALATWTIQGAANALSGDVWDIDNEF

As to `CC[C@H](C)[C@@H]1NC(=O)[C@H](Cc2ccc(OC)cc2)NC(=O)[C@H](Cc2ccc(O)cc2)NC(=O)[C@H](CC(N)=O)NC(=O)[C@H](Cc2c[nH]c3ccccc23)N(C)C(=O)[C@H](C(C)C)NC(=O)[C@H](Cc2cccc(Cl)c2)N(C)C(=O)[C@H](C(C)C)NC(=O)[C@H](C)NC(=O)CSC[C@@H](C(N)=O)NC(=O)[C@H](Cc2ccc(O)cc2)N(C)C(=O)[C@H](Cc2ccccc2)NC(=O)[C@@H](CCCNC(=N)N)NC(=O)[C@H](CCCNC(=N)N)NC(=O)[C@H](CCC(=O)NCCOCCOCCOCCOCCOCCOCCOCCOC)NC1=O` [compound 345] ({CH2CO}-AV[NMePhe(3-Cl)]V[NMeW]NYY(Me)IE(NH(CH2CH2O)8Me)R[dR]F[NMeY]C-NH2; thioether N-15), the dissociation constant (Kd) under setting [1] was in the range of 1 to 100 nM.
Regarding `CC[C@H](C)[C@@H]1NC(=O)[C@H](CCCNC(=N)N)NC(=O)[C@H](CC(N)=O)NC(=O)[C@H](C)NC(=O)CSC[C@@H](C(=O)NCCOCCOCCOCCOCCOCCOCCOCCOCCOCCOCCOCCOCCC(=O)N[C@@H](CCCCNC(=O)c2ccc(-c3c4ccc(=O)cc-4oc4cc(O)ccc34)c(C(=O)O)c2)C(N)=O)NC(=O)[C@H](Cc2c[nH]cn2)N(C)C(=O)[C@H](CCCNC(=N)N)NC(=O)[C@@H]2CCCN2C(=O)[C@H]([C@@H](C)CC)NC(=O)[C@H]([C@@H](C)CC)NC(=O)[C@H](Cc2ccc(O)cc2)NC(=O)[C@H](Cc2ccc(O)cc2)NC(=O)[C@H](CC(N)=O)NC(=O)[C@H](Cc2c[nH]c3ccccc23)NC(=O)[C@H](C(C)C)NC(=O)[C@H](Cc2ccccc2)NC(=O)[C@H](C(C)C)NC1=O` [compound 154] ({CH2CO}-ANRIVFVWNYYIIPR[NMeH]C[PEG12]K(X2)-NH2; thioether N-17), the dissociation constant Kd (SPR, linker and payload (FITC, VivoTag) conjugates, read-out: KD) was in the range of 1 to 100 nM.
With `CC[C@H](C)[C@@H]1NC(=O)[C@H](Cc2ccc(O)cc2)NC(=O)[C@H](Cc2ccc(O)cc2)NC(=O)[C@H](CC(N)=O)NC(=O)[C@H](Cc2c[nH]c3ccccc23)NC(=O)[C@H](C(C)C)NC(=O)[C@H](Cc2ccccc2)N(C)C(=O)[C@H](C(C)C)NC(=O)[C@H](C)NC(=O)CSC[C@@H](C(=O)N(C)CC(=O)N(C)CC(=O)N(C)CC(N)=O)NC(=O)[C@H](Cc2ccc(O)cc2)N(C)C(=O)[C@H](Cc2ccc(O)cc2)NC(=O)[C@H](CCCNC(=N)N)NC(=O)[C@H](CCCNC(=N)N)NC(=O)[C@H]([C@@H](C)CC)NC1=O` [compound 298], the Kd under setting [1] fell in the range of 1 to 100 nM.
For `CC[C@H](C)[C@@H]1NC(=O)[C@H](Cc2ccc(OC)cc2)NC(=O)[C@H](Cc2ccc(O)cc2)NC(=O)[C@H](CC(N)=O)NC(=O)[C@H](Cc2c[nH]c3ccccc23)N(C)C(=O)[C@H](C(C)C)NC(=O)[C@H](Cc2cccc(Cl)c2)N(C)C(=O)[C@H](C(C)C)NC(=O)[C@H](C)NC(=O)CSC[C@@H](C(=O)NCC(=O)NCC(=O)NCC(=O)NCC(=O)N[C@@H](CO)C(=O)N[C@@H](CO)C(=O)N[C@@H](CS)C(N)=O)NC(=O)[C@H](Cc2ccc(O)cc2)N(C)C(=O)[C@H](Cc2ccccc2)NC(=O)[C@@H](CCCNC(=N)N)NC(=O)[C@H](CCCCN)NC(=O)[C@H]([C@@H](C)CC)NC1=O` [compound 376], under setting [2], the Kd lay in the range of 1 to 100 nM.
With “hTfRNo.894FLIP-vivotag750: control: cyclic peptide with inverted No. 894 sequence (SEQ ID NO: 202) bound to VivoTag 750 via PEG11 linker ({CH2CO}-A[NMeY]YRRIIYYNWVFVC-{PEG11′-VivoTag750}; thioether N-15 (inferred); not fully specified; printed as ClAc-Ala-MeTyr-Tyr-Arg-Arg-Ile-Ile-Tyr-Tyr-Asn-Trp-Val-Phe-Val-Cys) [reference compound]”, for the setting “SPR, result in words”, the hTfR binding ability result is listed as “no binding to hTfR was recognized”.
`CC[C@H](C)[C@@H]1NC(=O)[C@H](Cc2ccc(OC)cc2)NC(=O)[C@H](Cc2ccc(O)cc2)NC(=O)[C@H](CC(N)=O)NC(=O)[C@H](Cc2c[nH]c3ccccc23)N(C)C(=O)[C@H](C(C)C)NC(=O)[C@H](Cc2cccc(Cl)c2)N(C)C(=O)[C@H](C(C)C)NC(=O)[C@H](C)NC(=O)CSC[C@@H](C(=O)NCC(=O)NCC(=O)N[C@@H](CO)C(=O)NCC(=O)N[C@@H](CO)C(=O)NCC(=O)N[C@@H](CCCCN=[N+]=[N-])C(N)=O)NC(=O)[C@H](Cc2ccc(O)cc2)N(C)C(=O)[C@H](Cc2ccccc2)NC(=O)[C@@H](CCCCN)NC(=O)[C@H](CCCNC(=N)N)NC(=O)[C@H]([C@@H](C)CC)NC1=O` [compound 406] ({CH2CO}-AV[NMePhe(3-Cl)]V[NMeW]NYY(Me)IIR[dK]F[NMeY]CGGSGSG[Lys(N3)]-NH2; thioether N-15): under setting [2], the equilibrium dissociation constant (Kd) is 1 to 100 nM.
As to `CC[C@H](C)[C@@H]1NC(=O)[C@H](Cc2ccc(O)cc2)NC(=O)[C@H](Cc2ccc(O)cc2)NC(=O)[C@H](CC(N)=O)NC(=O)[C@H](Cc2c[nH]c3ccccc23)NC(=O)[C@H](C(C)C)NC(=O)[C@H](Cc2ccccc2)NC(=O)[C@H](C(C)C)NC(=O)[C@H](C)NC(=O)CSC[C@@H](C(N)=O)NC(=O)[C@H](Cc2ccc(O)cc2)N(C)C(=O)[C@H](Cc2ccc(O)cc2)NC(=O)[C@H](CCCNC(=N)N)NC(=O)[C@H](CCCCN)N(C)C(=O)[C@H]([C@@H](C)CC)NC1=O` [compound 254], under setting [3], the Kd fell in the range of 1 to 100 nM.
Still for that read-out and setting: the result for `CC[C@H](C)[C@@H]1NC(=O)[C@H](Cc2ccc(O)cc2)NC(=O)[C@H](Cc2ccc(O)cc2)NC(=O)[C@H](CC(N)=O)NC(=O)[C@H](Cc2c[nH]c3ccccc23)NC(=O)[C@H](C(C)C)NC(=O)[C@H](Cc2ccccc2)NC(=O)[C@H](CCCCN)NC(=O)[C@H](C)NC(=O)CSC[C@@H](C(N)=O)NC(=O)[C@H](Cc2ccc(O)cc2)N(C)C(=O)[C@H](Cc2ccc(O)cc2)NC(=O)[C@H](CCCNC(=N)N)NC(=O)[C@H](CCCNC(=N)N)NC(=O)[C@H]([C@@H](C)CC)NC1=O` [compound 238] reads 1 to 100 nM.
As to `CC[C@H](C)[C@@H]1NC(=O)[C@H](Cc2ccc(OC)cc2)NC(=O)[C@H](Cc2ccc(O)cc2)NC(=O)[C@H](CC(N)=O)NC(=O)[C@H](Cc2c[nH]c3ccccc23)N(C)C(=O)[C@H](C(C)C)NC(=O)[C@H](Cc2cccc(Cl)c2)N(C)C(=O)[C@H](CCC(=O)O)NC(=O)[C@H](C)NC(=O)CSC[C@@H](C(=O)NCC(=O)NCC(=O)NCC(=O)NCC(=O)N[C@@H](CO)C(=O)N[C@@H](CO)C(=O)N[C@@H](CS)C(N)=O)NC(=O)[C@H](Cc2ccc(O)cc2)N(C)C(=O)[C@H](Cc2ccccc2)NC(=O)[C@@H](CCCNC(=N)N)NC(=O)[C@H](CCCCN)NC(=O)[C@H]([C@@H](C)CC)NC1=O` [compound 229], the Kd (SPR, peptides, linker-added peptides and FITC conjugates, Patent ID 203-230, read-out: KD) was in the range of 1 to 100 nM.
As for `CC[C@H](C)[C@@H]1NC(=O)[C@H](Cc2ccc(OC)cc2)NC(=O)[C@H](Cc2ccc(O)cc2)NC(=O)[C@H](CC(N)=O)NC(=O)[C@H](Cc2c[nH]c3ccccc23)N(C)C(=O)[C@H](C(C)C)NC(=O)[C@H](Cc2cccc(Cl)c2)N(C)C(=O)[C@H](C(C)C)NC(=O)[C@H](C)NC(=O)CSC[C@@H](C(=O)NCCOCCOCCOCCOCCC(N)=O)NC(=O)[C@H](Cc2ccc(O)cc2)N(C)C(=O)[C@H](Cc2ccccc2)NC(=O)[C@@H](CCCNC(=N)N)NC(=O)[C@H](CCCNC(=N)N)NC(=O)[C@H](CN)NC1=O` [compound 336] ({CH2CO}-AV[NMePhe(3-Cl)]V[NMeW]NYY(Me)I[Dap]R[dR]F[NMeY]C[PEG4]-NH2; thioether N-15), the Kd under setting [1] was in the range of 1 to 100 nM.
